EP3248604A1, “AGENTS FOR MODULATION OF WNT-TCF SIGNALLING AND USES THEREOF” (UNIVERSITE DE GENEVE, priority 2016, dated 2017)

Key:
DLD1 cells = assay: Clonal spheroid assay, DLD1; assay type: cell-based, human; details: Homo sapiens, DLD-1, 16 h, read-out: IC50, number of stem cell-derived spheroids
Description: Cells were treated with different concentrations of compounds for 16h in 2D adherent culture, washed, harvested and plated in suspension with serum-free DMEM-F12 media with B27 supplement (1:50 dilution) at 1 cell/well in 96-well format in triplicates. Plated cells were monitored to ensure the presence of single cells in each well and spheroids counted and photographed after 10 days for each round.
To directly test for a long-lasting repression of WNT-TCF targets by CAP2 clonogenic properties of cancer stem cells were tested. DLD1 and LS174T cells were first treated with CAP2 in 2D culture in vitro followed by removal of the drug, washing with PBS, and plating under non-adherent 3D conditions for clonal spheroid growth in the absence of the drug. After primary spheroid growth, the spheroids were dissociated and replated as single cells for secondary and subsequent clonogenic spheroid formation, also in the absence of the compound of the invention. As negative control DMSO-treatment was used.

Epigenetic regulators [1] = assay: RT-qPCR of epigenetic regulators in HT29 cells; assay type: cell-based, human; details: 0.5 µM
Description: (§1) RT-qPCR was performed as in Melotti et al. (2014, supra) using BioRad equipment and reagents. Cells cultured in nitro were treated with the desired concentration of drug in DMEM-F12 and reduced serum (2.5% FBS) for 16h, unless otherwise noted, and collected in Trizol (Sigma) before total RNA extraction and cDNA synthesis. Primers were as in Table 1. HPRT (gene encoding Hypoxanthine phosphoribosyltransferase 1) and βACTIN were used as housekeeping controls for normalization.
(§2) The WNT-TCF-independent repressive activity of CAP2 on epigenetic regulators may be extrapolated to other cancer cells as it was also detected in HT29 and CC14 human colon cancer cells, in MeWo human melanoma cells as well as in U87 and U251 human glioma cells. In all these different human cancer cells, CAP2 (at 0.5 µM) modulated the expression of ZMYND8, SMARCAL1, TBLIXR1, SETD6 and TAF5Ls (Table 15).

WNT-TCF targets [2] = assay: Epistatic rescue with TCF^VP16, Ls174T; assay type: cell-based, human; details: CAP2 5µM, 16h
Description: Lentivectors expressing a TCF4^VP16 protein in a vector independently expressing GFP, or vector alone, plus reporter plasmids were transfected into cells. 72h after transfection cells were visually checked for expression of GFP. Independent batches of cells with >80% GFP expression were chosen for further experimentation and treated with or without compounds in DMEM-F12 (with 2.5% FBS) for 16h and collected in Trizol.
If the effects of CAP2 on WNT-TCF targets were specific, an activated form of TCF should rescue the repression since CAP2 is likely to act downstream of the APC destruction complex since it was found using an N'Δ form of βCATENIN that is APC insensitive. To activate this last step of canonical WNT signaling, a fusion between TCF and the potent transactivation domain of the viral VP16 protein, TCF^VP16 (Melotti et al., 2014, supra), was used to directly and positively regulate TCF targets. […] Rescue of LGR5, cMYC and ASCL2 repression by CAP2 (at 5µM) was also observed although there was variability between the cell types, similarly to the repression of CDKN1A (Table 8), although in all cases it reversed its enhancement by CAP2 treatment (Table 8).

WNT-TCF targets [3] = assay: RT-qPCR gene expression in mCC11 primary colon cancer cells; assay type: cell-based, human
Description: as §1
Primary colon cells CC14, CC36 and mCC11, colon cancer cell lines DLD1, HT29, Ls174T, melanoma cell line MeWo, glioblastoma cell lines U87 and U251, and the lung cancer cell line H358 were cultured in DMEM-F12 with 10% FBS under standard in nitro conditions.

Epigenetic regulators [4] = assay: RT-qPCR of epigenetic regulators in CC14 cells; assay type: cell-based, human; details: 0.5 µM
Description: as §1, §2

[5] = tested on: chromatin components and remodelers; assay: Microarray analysis of chromatin components and remodelers in Ls174T cells; assay type: cell-based, human; details: CAP2-treated cells vs DMSO
Description: Cells treated with compounds were collected in Trizol and RNA was harvested using standard protocols. Quality and quantity of RNA was checked using Nano Series (Agilent Technologies). Samples with a RNA Integrity Number (RIN) >9/10 were chosen and cDNA and cRNA samples were prepared using GeneChip IVT Express kit. Genechip hybridization was done using the same kit and applied to PrimeView U219 human array (Affymetrix) in the Genomic Platform at the Faculty of Medicine, University of Geneva.
Mining the transcriptome of CAP2-treated cells for CAP2-induced expression changes the public Reactome database for a chromatin organization cluster expanded to include related family members (94 probes) was used.

Ls174T cells = details: FACS, vs DMSO
Description: Cell were plated with different concentrations of compounds in a 96-well format and incubated in standard conditions for 6h and imaged. Active (cleaved) Caspase-3^+ apoptosis was determined using the BD Pharmigen kit and FACS (fluorescence-activated cell sorting).

Epigenetic regulators [6] = assay: RT-qPCR of epigenetic regulators in U87 cells; assay type: cell-based, human; details: 0.5 µM
Description: as §1, §2

[7] = 1.25µM, 16h, batch 3, vs DMSO=1

CC1=C(C)C(=O)O[C@@H]([C@](C)(O)[C@]2(O)CC[C@@]3(O)[C@@H]4CC=C5CC=CC(=O)[C@]5(C)[C@H]4CC[C@]23C)C1 [CAP2]
IC50 (DLD1 cells): < 1250 nM | EED expression (Epigenetic regulators [1]): 0.3 | SETD6 expression (Epigenetic regulators [1]): 0.2 | SMARCAL1 expression (Epigenetic regulators [1]): 0.2 | TAF5L expression (Epigenetic regulators [1]): 0.4 | TBL1XR1 expression (Epigenetic regulators [1]): 0.02 | ZMYND8 expression (Epigenetic regulators [1]): 0.1 | ASCL2 expression, TCF^VP16+ CAP2 / control + CAP2 (WNT-TCF targets [2]): 1.0 | AXIN2 expression, TCF^VP16+ CAP2 / control + CAP2 (WNT-TCF targets [2]): 16.1 | CDKN1A expression, TCF^VP16+ CAP2 / control + CAP2 (WNT-TCF targets [2]): 0.5 | LGR5 expression, TCF^VP16+ CAP2 / control + CAP2 (WNT-TCF targets [2]): 0.7 | cMYC expression, TCF^VP16+ CAP2 / control + CAP2 (WNT-TCF targets [2]): 2.7 | AXIN2 expression (WNT-TCF targets [3]; [7]): 0.6 | LGR5 expression (WNT-TCF targets [3]; [7]): 0.8 | AXIN2 expression (WNT-TCF targets [3]; 2.5µM, 16h, batch 3, vs DMSO=1): 0.5 | LGR5 expression (WNT-TCF targets [3]; 2.5µM, 16h, batch 3, vs DMSO=1): 0.3 | AXIN2 expression (WNT-TCF targets [3]; 5µM, 16h, batch 3, vs DMSO=1): 0.3 | LGR5 expression (WNT-TCF targets [3]; 5µM, 16h, batch 3, vs DMSO=1): 0.1 | AXIN2 expression (WNT-TCF targets [3]; 10µM, 16h, batch 3, vs DMSO=1): 0.3 | LGR5 expression (WNT-TCF targets [3]; 10µM, 16h, batch 3, vs DMSO=1): 0.04 | ASCL2 expression (WNT-TCF targets [3]; Table 7, 1.25µM, vs DMSO=1): 0.3 | AXIN2 expression (WNT-TCF targets [3]; Table 7, 1.25µM, vs DMSO=1): 0.6 | CDKN1A expression (WNT-TCF targets [3]; Table 7, 1.25µM, vs DMSO=1): 1.4 | LEF1 expression (WNT-TCF targets [3]; Table 7, 1.25µM, vs DMSO=1): 0.3 | LGR5 expression (WNT-TCF targets [3]; Table 7, 1.25µM, vs DMSO=1): 0.8 | cMYC expression (WNT-TCF targets [3]; Table 7, 1.25µM, vs DMSO=1): 0.5 | ASCL2 expression (WNT-TCF targets [3]; Table 7, 2.5µM, vs DMSO=1): 0.2 | AXIN2 expression (WNT-TCF targets [3]; Table 7, 2.5µM, vs DMSO=1): 0.5 | CDKN1A expression (WNT-TCF targets [3]; Table 7, 2.5µM, vs DMSO=1): 2.7 | LEF1 expression (WNT-TCF targets [3]; Table 7, 2.5µM, vs DMSO=1): 0.4 | LGR5 expression (WNT-TCF targets [3]; Table 7, 2.5µM, vs DMSO=1): 0.3 | cMYC expression (WNT-TCF targets [3]; Table 7, 2.5µM, vs DMSO=1): 0.3 | ASCL2 expression (WNT-TCF targets [3]; Table 7, 5µM, vs DMSO=1): 0.1 | AXIN2 expression (WNT-TCF targets [3]; Table 7, 5µM, vs DMSO=1): 0.3 | CDKN1A expression (WNT-TCF targets [3]; Table 7, 5µM, vs DMSO=1): 6.5 | LEF1 expression (WNT-TCF targets [3]; Table 7, 5µM, vs DMSO=1): 0.5 | LGR5 expression (WNT-TCF targets [3]; Table 7, 5µM, vs DMSO=1): 0.1 | cMYC expression (WNT-TCF targets [3]; Table 7, 5µM, vs DMSO=1): 0.1 | ASCL2 expression (WNT-TCF targets [3]; Table 7, 10µM, vs DMSO=1): 0.02 | AXIN2 expression (WNT-TCF targets [3]; Table 7, 10µM, vs DMSO=1): 0.3 | CDKN1A expression (WNT-TCF targets [3]; Table 7, 10µM, vs DMSO=1): 5.3 | LEF1 expression (WNT-TCF targets [3]; Table 7, 10µM, vs DMSO=1): 0.6 | LGR5 expression (WNT-TCF targets [3]; Table 7, 10µM, vs DMSO=1): 0.04 | cMYC expression (WNT-TCF targets [3]; Table 7, 10µM, vs DMSO=1): 0.1 | EED expression (Epigenetic regulators [4]): 0.3 | SETD6 expression (Epigenetic regulators [4]): 0.4 | SMARCAL1 expression (Epigenetic regulators [4]): 0.2 | TAF5L expression (Epigenetic regulators [4]): 0.5 | TBL1XR1 expression (Epigenetic regulators [4]): 0.2 | ZMYND8 expression (Epigenetic regulators [4]): 0.1 | EED repression [5]: 8 fold | SMARCAL1 repression [5]: 6 fold | ZMYND8 repression [5]: 28 fold | concentration from which activated Caspase3 labeled cells increase (Ls174T cells): 2.5 µM | EED expression (Epigenetic regulators [6]): 0.2 | SETD6 expression (Epigenetic regulators [6]): 0.3 | SMARCAL1 expression (Epigenetic regulators [6]): 0.2 | TAF5L expression (Epigenetic regulators [6]): 0.5 | TBL1XR1 expression (Epigenetic regulators [6]): 0.2 | ZMYND8 expression (Epigenetic regulators [6]): 0.1
